# Literature values, collected in paper PMC8513935.
# What was measured:
# [1] = log P octanol/water from commercial databases, averaged (the ESI); settings: Octanol (wet), 25 C
# [2] = experimental, compiled by the authors from the literature (the ESI cites the sources)
# [3] = derived by the authors as gas->solvent minus gas->water (a hypothetical dry solvent; the ESI), not a two-phase measurement
SMILES,"log K of transfer, water to solvent [1] [log10 K]","log K of transfer, gas to solvent ([2]; Hexadecane, 25 C) [log10 K]","log K of transfer, gas to solvent ([2]; Hexane, 25 C) [log10 K]","log K of transfer, gas to solvent ([2]; Methanol, 25 C) [log10 K]","log K of transfer, gas to solvent ([2]; Propan-2-ol, 25 C) [log10 K]","log K of transfer, gas to solvent ([2]; Water, 25 C) [log10 K]","log K of transfer, water to solvent ([3]; Hexadecane, 25 C) [log10 K]","log K of transfer, water to solvent ([3]; Hexane, 25 C) [log10 K]","log K of transfer, water to solvent ([3]; Methanol, 25 C) [log10 K]","log K of transfer, water to solvent ([3]; Propan-2-ol, 25 C) [log10 K]","log K of transfer, gas to solvent ([2]; Octan-1-ol, 25 C) [log10 K]","log K of transfer, water to solvent ([3]; Octan-1-ol(dry), 25 C) [log10 K]",also measured
C1CCCC1,3,2.48,2.71,1.92,2.12,-0.88,3.36,3.59,2.8,3,–,–,"log K of transfer, gas to solvent ([2]; Ethanol, 25 C): 2.04 log10 K; log K of transfer, gas to solvent ([2]; Heptan-1-ol, 25 C): 2.27 log10 K; log K of transfer, gas to solvent ([2]; Propan-1-ol, 25 C): 2.12 log10 K; log K of transfer, water to solvent ([3]; Ethanol, 25 C): 2.92 log10 K; log K of transfer, water to solvent ([3]; Heptan-1-ol, 25 C): 3.15 log10 K; log K of transfer, water to solvent ([3]; Propan-1-ol, 25 C): 3 log10 K"
O=C1CCCC1,0.38,3.22,–,–,–,3.45,-0.229,–,–,–,3.67,0.22,"log K of transfer, gas to solvent ([2]; 1,2-Dichloroethane, 25 C): 4.59 log10 K; log K of transfer, gas to solvent ([2]; CCl4, 25 C): 4.06 log10 K; log K of transfer, gas to solvent ([2]; Di-n-butyl ether, 25 C): 3.53 log10 K; log K of transfer, water to solvent ([3]; 1,2-Dichloroethane, 25 C): 1.14 log10 K; log K of transfer, water to solvent ([3]; CCl4, 25 C): 0.61 log10 K; log K of transfer, water to solvent ([3]; Di-n-butyl ether, 25 C): 0.08 log10 K"
O=C1CCCCN1,-0.465,4.18,–,–,–,6.97,-2.79,–,–,–,–,–,–

# Second part, led by results:
"log K of transfer, water to solvent [1] [log10 K]","log K of transfer, gas to solvent ([2]; Hexadecane, 25 C) [log10 K]","log K of transfer, gas to solvent ([2]; Hexane, 25 C) [log10 K]","log K of transfer, gas to solvent ([2]; Methanol, 25 C) [log10 K]","log K of transfer, gas to solvent ([2]; Propan-2-ol, 25 C) [log10 K]","log K of transfer, gas to solvent ([2]; Water, 25 C) [log10 K]","log K of transfer, water to solvent ([3]; Hexadecane, 25 C) [log10 K]","log K of transfer, water to solvent ([3]; Hexane, 25 C) [log10 K]","log K of transfer, water to solvent ([3]; Methanol, 25 C) [log10 K]","log K of transfer, water to solvent ([3]; Propan-2-ol, 25 C) [log10 K]","log K of transfer, gas to solvent ([2]; Octan-1-ol, 25 C) [log10 K]","log K of transfer, water to solvent ([3]; Octan-1-ol(dry), 25 C) [log10 K]",SMILES,also measured
1.12,3.42,–,–,4.31,3.4,0.022,–,–,0.91,–,–,Cc1ccccn1,"log K of transfer, gas to solvent ([2]; 2-Methylpropan-1-ol, 25 C): 4.54 log10 K; log K of transfer, gas to solvent ([2]; 2-Methylpropan-2-ol, 25 C): 4.33 log10 K; log K of transfer, gas to solvent ([2]; Benzene, 25 C): 4.3 log10 K; log K of transfer, gas to solvent ([2]; Butan-2-ol, 25 C): 4.4 log10 K; log K of transfer, gas to solvent ([2]; Chloroform, 25 C): 5.12 log10 K; log K of transfer, gas to solvent ([2]; Cyclohexane, 25 C): 3.7 log10 K; log K of transfer, water to solvent ([3]; 2-Methylpropan-1-ol, 25 C): 1.14 log10 K; log K of transfer, water to solvent ([3]; 2-Methylpropan-2-ol, 25 C): 0.93 log10 K; log K of transfer, water to solvent ([3]; Benzene, 25 C): 0.9 log10 K; log K of transfer, water to solvent ([3]; Butan-2-ol, 25 C): 0.999 log10 K; log K of transfer, water to solvent ([3]; Chloroform, 25 C): 1.72 log10 K; log K of transfer, water to solvent ([3]; Cyclohexane, 25 C): 0.3 log10 K"
3.7,4.23,4.07,3.91,3.93,0.39,3.84,3.68,3.52,3.54,4.09,3.7,CCCc1ccccc1,"log K of transfer, gas to solvent ([2]; Tetrahydrofuran, 25 C): 4.87 log10 K; log K of transfer, water to solvent ([3]; Tetrahydrofuran, 25 C): 4.48 log10 K"
